This is an account of results in publication PMC8011576 (Nature biomedical engineering, 2020).

In general, half-life refers to the time in which the quantity being followed falls by half. Read a high half-life as slow loss.

“Also recorded” adds a separate entry of the source. Where two headings read alike, the source gives them in different places.

Data set [1] has as its system OCT2. In words: Western blot of OCT2 in Kidney Chip. The following applies: cisplatin exposure, Western blot vs controls. The data set is classed as cell-based, human.
In data set [2] the test system is Gut Chip. To be noted: nicotine in epithelial lumen.
For data set [3] the following is noted: rodent in vivo; ref Yamazaki et al [35]; cited from earlier work.
The test system of data set [4] is Liver Chip. Nature of the data set: Albumin production in Liver Chip. The data set is classed as cell-based, human. To be noted: nicotine exposure, linked chips.
Data set [5] deals with first pass human Organ Chips. The following applies: nicotine exposure, linked Gut, Liver, Kidney Chips.
Data set [6] concerns intestinal epithelial cells and endothelial cells in Transwell inserts. To be noted: nicotine, same intestinal epithelial and endothelial cells.
For data set [7] the following is noted: cited from earlier work.
The test system of data set [8] is CYP3A4. To be noted: nicotine exposure, linked chips.
For data set [9] the following is noted: 396±16 μM nicotine infused into Gut Chip lumen for 84 hrs, MS.
Data set [10] can be described thus: Human clinical nicotine PK. The following applies: blood, oral, 16 μM. The data set is classed as in vivo.
Where [11] appears, read: human clinical data, ref Digard et al. [28].

Regarding `N.N.[Cl][Pt][Cl]` [Cisplatin, cisplatin], the “OCT2 expression in the Kidney Chip” value in [1] is listed as “increased; also recorded: upregulation”.

Consider `CN1CCC[C@H]1c1cccnc1` [Nicotine, nicotine], for which the “intestinal barrier function of the Gut Chip, inulin tracer” value in data set [2] was “could not detect any effect”. Further, the “intestinal barrier function of the Gut Chip, Cascade Blue tracer” value in data set [2] (P < 0.03) is recorded as “significantly increased”. For the same molecule, in data set [3], the “Kidney Renal Clearance, CLR” value is listed as 5.5 ml/min/kg.BW and the “Liver Intrinsic Clearance, CLint” value is on record as 300 ml/min/kg.BW. The “albumin production in the Liver Chip” value in data set [4] is listed as “remained unchanged”. Moreover, in data set [5], the “toxicity (LDH release) in first pass human Organ Chips” value is recorded as “did not detect toxicity”. In data set [6], the “barrier change by TEER in static Transwell inserts” value was “did not detect a barrier change”. Also, in data set [7] (clinical studies), the unbound in vivo is given as 40%. For the same molecule, in [7] (setting [11]), the “Liver Intrinsic Clearance, CLint” value was 12.5 ml/min/kg.BW and the “Liver Secondary Intrinsic Clearance, CLint, sec” value is on record as 0.74 ml/min/kq.BW. For the same molecule, the “CYP3A4 activity in the Gut Chip” value in [8] is reported as “remained unchanged”. In addition, the “maximum level measured in the AV Reservoir” value in data set [9] worked out at 0.8 ± 0.08 µM. The same molecule showed a half-life in data set [10] of 10.6 min.
